{
  "source": "patent US10501453B2",
  "about": "“Benzothiazole or benzoxazole compounds as SUMO activators” (Icahn School of Medicine at Mount Sinai, priority 2012, dated 2019)",
  "key": {"[1]": {"test_system": "TAC mice", "experiment": "Hemodynamics in mouse model of heart failure (TAC)", "type": "in vivo", "details": "for ESPVR slope: baseline 3.1; for Tau(1/2): baseline 7.7; for Pmax: baseline 111.1; for HR: baseline 422.1; for +dP/dt Max: baseline 4738.7; for index of contractility ESPVR, dose dependence: infusion of increasing doses", "description": "Hemodynamics were measured to evaluate the acute effect of Example 1 infusion on the cardiac function of the mouse model of HF. In the first set of experiments, mice were exposed to pressure overload by thoracic aortic constriction (TAC) or sham operation and received either EXAMPLE 1 or vehicle. At two months post-TAC animals developed HF. […] In addition, the positive chronotropic effect of dobutamine was no longer observed in TAC mice (FIG. 9). Following cannulation of the carotid artery and external jugular vein, infusion of EXAMPLE 1 or vehicle was performed as described in Method section. Pressure and conductance catheters were introduced in the LV through the carotid artery. Pressure and volume measurements were made simultaneously and pressure volume curves were constructed as the vehicle or EXAMPLE 1 were infused.\nHemodynamic data were obtained in 1 mg of EXAMPLE 1-treated failing hearts at 30 min and 60 min after compound treatment. […] The improvement occurred within 30 minutes after treatment and maintained for 60 minutes after treatment. […] The effects of EXAMPLE 1 on various hemodynamic parameters are shown in FIG. 9b and Table S1. dP/dt max increased with increasing concentration of EXAMPLE 1 while Tau a parameter of relaxation decreased an indication of enhanced relaxation.\nA model of heart failure was created by transaortic constriction in the mouse for 6-8 weeks. Following cannulation of the carotid artery and external jugular vein, infusion of Example 1 or vehicle was performed as shown in the protocol in FIG. 16. Pressure and conductance catheters were introduced in the left ventricle through the carotid artery. Pressure and volume measurements were made simultaneously and pressure volume curves were constructed as the vehicle or Example 1 was infused."}, "[2]": {"test_system": "Yorkshire pigs with severe heart failure", "experiment": "Contractility in Yorkshire pigs with severe heart failure secondary to myocardial infarction", "type": "in vivo, pig", "details": "5 mg/kg, intracoronary", "description": "Example 1 was dosed in Yorkshire pigs at 5 mg/kg with severe heart failure secondary to myocardial infarction.\nThe experimental protocols complied with the National Institutes of Health Guide for the Care and Use of Laboratory Animals and standards of United States regulatory agencies. They were approved by the Institutional Animal Care and Use Committee of the Mount Sinai School of Medicine. Yorkshire pigs were pre-medicated using intramuscular Telazol™ (8.0 mg/kg; tiletamine hydrochloride and zolazepam hydrochloride; Fort Dodge Animal Health, Fort Dodge, Iowa). After the placement of an intravenous line, animals were intubated and ventilated with 100% oxygen. General anesthesia was maintained with intravenous propofol (8-10 mg/kg/hr) throughout the procedure.\nThe animals underwent a 2-hour balloon occlusion of the proximal LAD (left anterior descending coronary artery) followed by reperfusion. Ten minutes before MI creation a continuous infusion of 20 mEq potassium acetate, 75 mg amiodarone, and 2 mg atropine was initiated to reduce ischemia related arrhythmia. […] Arterial pressure, blood oxygen saturation (SpO2), and electrocardiogram were monitored closely throughout the procedure. […]\nCardiac performance was evaluated at one month after MI. […] Cardiac function was monitored and recorded for 3 hours after injection."}, "[3]": {"experiment": "Pharmacokinetic analysis in mice", "details": "mouse, in vivo, ip; murine model, 10 mg/kg intraperitoneal dose", "description": "FIG. 12 depicts the pharmacokinetic analysis of the compound of Example 1 in mice at a 10 mg/kg intraperitoneal dose."}, "[4]": {"details": "failing hearts, 1 mg, 30 min and 60 min after treatment"}},
  "data": [
    {"smiles": "COc1ccc(-c2nnc(Nc3nc4c(OC)cccc4s3)o2)cc1", "note": "[Example 1, N-(4-methoxybenzo[d]thiazol-2-yl)-5-(4-methoxyphenyl)-1,3,4-oxadiazol-2-amine]", "values": [
      {"measurement": "Tau (parameter of relaxation) with increasing concentration", "setting": "[1]; TAC mice", "result": "decreased"},
      {"measurement": "dP/dt max with increasing concentration", "setting": "[1]; TAC mice", "result": "increased"},
      {"measurement": "ESPVR slope", "setting": "[1]; TAC mice, 0.1 mg/kg", "result": 9.0, "unit": "mmHg/A"},
      {"measurement": "Tau(1/2)", "setting": "[1]; TAC mice, 0.1 mg/kg", "result": 7.5, "unit": "ms"},
      {"measurement": "Pmax", "setting": "[1]; TAC mice, 0.1 mg/kg", "result": 115.1, "unit": "mmHg"},
      {"measurement": "HR", "setting": "[1]; TAC mice, 0.1 mg/kg", "result": 417.1, "unit": "bpm"},
      {"measurement": "+dP/dt Max", "setting": "[1]; TAC mice, 0.1 mg/kg", "result": 4803.3, "unit": "mmHg/sec"},
      {"measurement": "ESPVR slope", "setting": "[1]; TAC mice, 1.0 mg/kg", "result": 11.2, "unit": "mmHg/A"},
      {"measurement": "Tau(1/2)", "setting": "[1]; TAC mice, 1.0 mg/kg", "result": 6.4, "unit": "ms"},
      {"measurement": "Pmax", "setting": "[1]; TAC mice, 1.0 mg/kg", "result": 123.6, "unit": "mmHg"},
      {"measurement": "HR", "setting": "[1]; TAC mice, 1.0 mg/kg", "result": 422.3, "unit": "bpm"},
      {"measurement": "+dP/dt Max", "setting": "[1]; TAC mice, 1.0 mg/kg", "result": 5448.8, "unit": "mmHg/sec"},
      {"measurement": "ESPVR slope", "setting": "[1]; TAC mice, 10 mg/kg", "result": 20.3, "unit": "mmHg/A"},
      {"measurement": "Tau(1/2)", "setting": "[1]; TAC mice, 10 mg/kg", "result": "6.2 ± 0.4", "unit": "ms"},
      {"measurement": "Pmax", "setting": "[1]; TAC mice, 10 mg/kg", "result": 124.5, "unit": "mmHg"},
      {"measurement": "HR", "setting": "[1]; TAC mice, 10 mg/kg", "result": 455.1, "unit": "bpm"},
      {"measurement": "+dP/dt Max", "setting": "[1]; TAC mice, 10 mg/kg", "result": 6229.4, "unit": "mmHg/sec"},
      {"measurement": "index of contractility ESPVR, dose dependence", "setting": "[1]; TAC mice", "result": "increase in the index of contractility ESPVR in a dose dependent fashion"},
      {"measurement": "index of contractility ESPVR, dose dependence", "setting": "[1]; TAC mice, listed as EXAMPLE 1", "result": "increase in the index of contractility, ESPVR in a dose dependent manner"},
      {"measurement": "time the improvement was maintained after treatment", "setting": "[1]; failing hearts, 1 mg", "result": 60, "unit": "min"},
      {"measurement": "time to improvement after treatment", "setting": "[1]; failing hearts, 1 mg", "result": "≤ 30", "unit": "min"},
      {"measurement": "end systolic pressure-volume relationship (ESPVR) in the LV versus baseline", "setting": "[1]; [4]", "result": "significantly steeper"},
      {"measurement": "rate of LV pressure rise (dP/dt max) versus baseline", "setting": "[1]; [4]", "result": "increased cardiac contractility"},
      {"measurement": "increase in contractility (as measured by dP/dt)", "setting": "[2]", "result": "25-30%"},
      {"measurement": "Cmax", "setting": "[3]", "result": 2240, "unit": "nM"},
      {"measurement": "half-life", "setting": "[3]", "result": 1.09, "unit": "h"}
    ]}
  ]
}
